Measurements as given in US20120148530A1, “Method for the treatment or prevention of virus infection using polybiguanide-based compounds” (Novaflux Biosciences, Inc., priority 2003, published 2012).

How the values were obtained:
HeLa cells = assay: HeLa cell viability, MTT, 2 hr exposure; assay type: cell-based
Description: HeLa cells (ATCC designation CCL-2) were maintained in Dulbecco's Modified Eagle's medium (DMEM). […] All three cell types were cultured in media supplemented with 10% fetal bovine serum (FBS), […] (0.3 mg/ml), antibiotics (penicillin, streptomycin, and kanamycin at 0.04 mg/ml each), and 0.05% sodium bicarbonate.
(§1) The experiments described below were conducted to determine the activity and cytotoxicity of short chain compounds having one or two biguanide groups. […] The efficacy determinations were made using P4R5 cells, which allow for the detection of bacterial β-galactosidase activity upon release of viral tat protein into the parent HeLa cell.

cell-free HIV-1 = assay: Cell-free HIV-1 infectivity in P4R5 cells, β-galactosidase readout; assay type: cell-based; details: 2 hr exposure of cells to compounds in the presence of virus
Description: as §1

CXCR4 [1] = biological target: T1, CXCR4 (Homo sapiens, UniProt P61073); assay: FACS analysis of CXCR4 on P4-R5 cells; assay type: cell-based; details: BCD 0.3%
T1 construct: host or cells: P4-R5 (P4-CCR5) cells, HeLa-derived
T1 sequence (P61073 whole entry): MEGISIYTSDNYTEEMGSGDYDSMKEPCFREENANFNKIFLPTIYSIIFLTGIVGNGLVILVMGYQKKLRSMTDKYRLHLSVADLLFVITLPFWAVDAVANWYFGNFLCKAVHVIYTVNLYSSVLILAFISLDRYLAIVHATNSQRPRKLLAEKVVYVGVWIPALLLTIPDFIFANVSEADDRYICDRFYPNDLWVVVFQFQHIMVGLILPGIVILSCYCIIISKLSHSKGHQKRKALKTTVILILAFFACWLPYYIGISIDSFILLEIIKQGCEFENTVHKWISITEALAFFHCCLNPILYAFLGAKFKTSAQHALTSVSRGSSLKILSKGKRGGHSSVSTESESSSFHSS
Excerpt: (§2) After a 2 hr exposure to PEHMB (0.1%), P4-R5 cell presentation of CXCR4 was reduced from 98% to 29% (FIG. 6).

P4R5 cells = assay: P4R5 cell viability, MTT
Excerpt: (§3) To build on the information provided by the monomeric biguanide data a series of polybiguanide molecules were synthesized with varied linker length as described in Example 1. In these molecules the methylene spacer arms between the biguanide functionalities (X and Y in Forumla I) have been changed.
As described above the effect of PEHMB and related compounds on P4R5 cell viability after a two-hour exposure to the compound was compared to the effects of control compounds such as N-9. […] To further evaluate the effect of this class of compound on various types of cells (in particular PEHMB P4-R5 cells, ME-180 cells (ATCC HTB-33; cervical epidermoid carcinoma), VK2/E6E7 human vaginal cell line (Fichorova et al. 1997 Biol. Reprod. 57:847-855), and human primary vaginal karatinocytes (isolated from tissues obtained from vaginal reconstructive surgery)) the compounds were incubated with the different cells for various lengths of time before assessment of cell viability.

HIV-1 IIIB [2] = assay: HIV-1 IIIB viral binding/entry inhibition in P4R5 cells; assay type: cell-based
Description: as §3
Antiviral assays include a viral binding/entry assay in which reporter cells such as P4R5 are incubated with virus in the presence of compound for two hours at which time the drug is washed off and the cells incubated for 48 hrs before measuring the intracellular production of β-galactosidase (Ojwang et al. 1995 Antimicrobial Agents and Chemotherapy 39:2426-2435). In cell-associated virus inhibition (CAI) assays, HIV-1111B infected SUP T1 cells are pelleted to remove cell free virus and incubated with each compound for ten minutes at 37° C. before a 1:10 dilution in media and incubation with P4R5 indicator cells for 48 hours before measuring β-galactosidase activity. In cell-free virus assays HIV-1IIIB or BaL were incubated with each compound for 10 minutes at 37° C. before a 1:100 dilution in RPM! 1640, and incubated for 2 hours with P4R5 cells, and subsequent assays for viral infectivity were performed 48 hours later using the β-galactosidase method.
Select compounds were assessed for their ability to inhibit events necessary for HIV-1 binding and entry.
The same strategy was tested using PEHMB.

CXCR4 [3] = biological target: T1, CXCR4; assay: FACS analysis of CXCR4 on PM-1 cells; assay type: cell-based; details: PEHMB 0.1%, BCD 0.3%, untreated 45%
Description: as §2
A similar experiment (FIG. 7) was performed using the PM-1 T lymphocyte cell line (Lusso et al. 1995 J. Virol 69:3712-3720). […] However, reductions in CD3 were not seen in response to compound exposure, indicating specificity of action with respect to PEHMB's impact on CXCR4 (data not shown).

HIV-1 IIIB [4] = assay: Modified viral binding inhibition assay: pre-treatment, wash, then HIV-1 IIIB challenge; assay type: cell-based; details: 0.1% or 0.01%
Description: In a modified viral binding inhibition assay (VBI) assay, HIV-1-susceptible P4R5 cells were maintained for 1 or 2 hr in the presence of PEHMB (0.1% and 0.01%) and then washed extensively before challenge with HIV-1 IIIB.
HIV-1-susceptible target cells were incubated with PEHMB (0.1%) for 2 hr, washed extensively with PBS, and subsequently challenged with HIV-1 IIIB at 0, 0.5, 1, 2, 3, and 4 hours after washing.

[5] = test system: Primary vaginal keratinocytes; assay: Primary vaginal keratinocyte viability; assay type: cell-based, human
ME-180 cells = assay: ME-180 cell viability; assay type: cell-based
Vk2/E6E7 cells = assay: Vk2/E6E7 cell viability

Which “CC50 (%)” value (HeLa cells) does the source give for `[H]/N=C(/N)N/C(=N/[H])NCCc1ccccc1` [1-phenethyl biguanide] here?
The value was 0.538%.

How did the “CC50 (%)” value (HeLa cells) turn out when `N=C(N)NC(=N)Nc1ccccc1` [1-phenyl biguanide] was run?
Its value is 0.150%.

What about the “IC50 (%)” value (cell-free HIV-1) of the same compound?
Its value is 0.522%.

Which results are given for `OC[C@H]1O[C@@H]2O[C@H]3[C@H](O)[C@@H](O)[C@@H](O[C@H]4[C@H](O)[C@@H](O)[C@@H](O[C@H]5[C@H](O)[C@@H](O)[C@@H](O[C@H]6[C@H](O)[C@@H](O)[C@@H](O[C@H]7[C@H](O)[C@@H](O)[C@@H](O[C@H]8[C@H](O)[C@@H](O)[C@@H](O[C@H]1[C@H](O)[C@H]2O)O[C@@H]8CO)O[C@@H]7CO)O[C@@H]6CO)O[C@@H]5CO)O[C@@H]4CO)O[C@@H]3CO` [BCD, β-cyclodextrin]?
effect on CXCR4 (CXCR4 [1]): no apparent effect; cytotoxicity, FIG. 4A (P4R5 cells): non-cytotoxic; remaining infectivity, % of mock-treated cells (HIV-1 IIIB [2]; PEHMB 0.1%, BCD 0.3%, HIV-1 strain IIIB): 27%; CXCR4 presentation (CXCR4 [3]): 22%

With dextran sulfate as the compound, how does the “residual antiviral activity after removal of compound” value (HIV-1 IIIB [4]) read?
Its value is “no residual antiviral activity”.

With nonoxynol-9 [N-9] as the compound, how does the “CC50 % 2 hr exposure” value [5] read?
The value was 0.007%.

And the “CC50 % 10 minute exposure” value (ME-180 cells; 10 minute exposure)?
The value was 0.20%.

What about the “CC50 % 2 hr exposure” value (ME-180 cells; 2 hr exposure) of the same compound?
Its value is 0.008%.

And the “CC50 % 6 hr exposure” value (ME-180 cells; 6 hr exposure)?
The value was 0.007%.

And the “CC50 % 10 minute exposure” value (Vk2/E6E7 cells; 10 minute exposure)?
The value was 0.03%.

And the “CC50 % 2 hr exposure” value (Vk2/E6E7 cells; 2 hr exposure)?
The value was 0.006%.

And the “CC50 % 6 hr exposure” value (Vk2/E6E7 cells; 6 hr exposure)?
Its value is 0.002%.

And the “CC50 (%)” value (HeLa cells)?
The value was 0.007%.

And the CC50 (P4R5 cells; MTT)?
Its CC50 is 0.003%.

And the “CC50 % 10 minute exposure” value (P4R5 cells; P4-R5 cells, 10 minute exposure)?
The value was 0.2%.

And the “CC50 % 2 hr exposure” value (P4R5 cells; P4-R5 cells, 2 hr exposure)?
Its value is 0.008%.

What about the “CC50 % 6 hr exposure” value (P4R5 cells; P4-R5 cells, 6 hr exposure) of the same compound?
The value was 0.005%.

And the “CC50 (%)” value (P4R5 cells; P4R5 cell data (2 hr exposure), Table 6)?
The value was 0.005%.

And the “CC50 (%)” value (P4R5 cells; P4R5 cells, 2 hr exposure, MTT (Table 3))?
Its value is 0.007%.

And the “CC50 (%)” value (P4R5 cells; Table 5)?
Its value is 0.007%.

And the “IC50 (%)” value (cell-free HIV-1)?
The value was 0.005%.

What about the IC50 (HIV-1 IIIB [2]) of the same compound?
The IC50 was 0.003%.

And the “IC50 (%)” value (HIV-1 IIIB [2]; P4R5 cells, 2 hr exposure in the presence of HIV-1IIIB, Table 6)?
Its value is 0.005%.

What about the “IC50 (%)” value (HIV-1 IIIB [2]; Table 3) of the same compound?
The value was 0.005%.

And the “IC50 (%)” value (HIV-1 IIIB [2]; Table 5)?
Its value is 0.005%.

Which “CC50 (%)” value (HeLa cells) does the source give for xyleneylene bis-biguanide here?
Its value is 0.385%.
